Test results as given in patent US11733243B2, “Use of acamprosate to modulate ERK1/2 activation in animal models for FXS and ASD and individuals diagnosed with FXS and ASD” (Indiana University Research and Technology Corporation, priority 2013, dated 2023).
“And” between values parts separate entries of the source, which are not always exact repeats. Identical values can stand only once. “Also recorded” adds a separate entry of the source.

Columns and labels:
[1] = system: alcohol withdrawal associated anxiety; settings: in vivo; cited from earlier work
[2] = system: youths symptomatic for an autistic disorder; settings: mean dose 1,110 mg/day, 10 to 30 weeks; cited from earlier work
sAPP = assay: plasma sAPP total ELISA pre- and post-acamprosate; format: in vivo, human
Text: For sAPP levels, the Test plasma samples should be measured soon after collection. […] Just before assay, we thawed the test samples at a low temperature and mixed them completely. The plasma samples should be diluted appropriately with the EIA buffer, if needed. Duplicate measurement of test samples and standard are recommended. We used test samples in neutral pH range, and avoided the contaminations of organic solvent that may affect the measurement. Regarding the standard to quantify levels of sAPP, we prepared a series of sAPP standards in EIA buffer by serial dilutions, from 0.39 ng/mL to 25 ng/mL.
The ELISA plate was pre-coated with anti-human APP (R12A1) mouse IgG (IBL). First, the wells for reagent blank was determined, and 100 μL each of “EIA buffer” or 10 mM NaHCO3 buffer was added into the wells. Likewise, wells were assigned for test sample blank, test sample and diluted standard. Then 100 μL each of test sample blank, test sample and dilutions of standard was added into the appropriate wells. The test sample included the plasma sample from each subject, which may vary from 5-25 μl, made up to 100 μL with the EIA buffer. Each pre-coated plates was incubated overnight at 4° C. after covering it tightly with a plate lid. The plate was kept onto a rocker with gentle shaking. The next day, each well of the pre-coated plate was vigorously washed with wash buffer containing 0.05% Tween20 in phosphate buffer. This was performed by filling each well with wash buffer, leaving the pre-coated plate laid for 15-30 seconds and removing wash buffer completely from the plate by snapping. This procedure was repeated five times. After removing the remaining liquid from all wells completely by snapping the plate onto paper towel, we added 100 μL of labeled antibody solution into the wells of test samples, diluted standard and test sample blank. HRP labeled anti-Human APP (R101A4) mouse IgG from IBL was used. The plate was incubated for 30 minutes at 4° C. after covering it with plate lid, and then washed the plate 5 times in the same manner as described before. To develop the color, 100 μL of the Chromogen (TMB solution) was adding into the wells, and the plate was incubated for 30 minutes at room temperature in the dark.
When the liquid started turning blue (by addition of the Chromogen), 100 μL of the Stop solution (1N H2SO4) was added into the wells. […] A plate reader was used and measurements were conducted at 450 nm against a reagent blank. […]
The first project enrolled 12 youth aged 5 to 17 years with fragile X syndrome and comorbid ASD in a 10-week open-label trial of acamprosate. […] Plasma sAPP total and sAPPα were determined separately in serum using the ELISA kit obtained from Immuno Biological Laboratories (IBL, Gumma, Japan). […]

[3] = safety and adverse effects in the autistic disorder trial; format: in vivo, human; settings: idiopathic ASD, nine patients, range 600-1,998 mg/day
Experimental: A 12-week single-blind, placebo-controlled trial of the effect of acamprosate in the treatment of 12 youths with autistic disorder aged 5 to 17 years was carried out. In order to pilot test use of acamprosate in youth with autism targeting core social impairment, was conducted. All subjects and their family members were blinded to treatment status. All subjects participated in a 2 week placebo-lead-in phase prior to 10 weeks of treatment with acamprosate. For this project, enteric coated commercially available 333 mg acamprosate pills were over-encapsulated and identical matching placebo manufactured for the project. Placebo-responders, defined by a Clinical Global Impressions Improvement scale (CGI-I) score of 1 “very much improved” or 2 “much improved” (ratings anchored to core social deficits) at week 2 were asked to exit the study. During active treatment with acamprosate, dosing was increased in 333 mg increments per week over the first six weeks of active treatment to a maximum dose of 1,332 mg/day (weight<5 60 kg) or 1,998 mg/day (weight>60 kg). During the final four weeks of active drug treatment, subjects were maintained on a stable highest tolerated (optimal) dose. The primary outcome measure was the clinician-rated CGI-I anchored to symptoms of social impairment. […]

extracellular dopamine = settings: rats; dependent on glycine receptor activation; cited from earlier work
[4] = system: fmr1 (fragile X gene) Knock Out mice; assay: training/test exploration and P.I. in WT and fmr1 KO mice; format: in vivo; parameters: training left / training right / training Total / test novel / test fam / test total: unit not given here

With `CC(=O)NCCCS(=O)(=O)O` [Acamprosate, 3-Acetamidopropane-1-sulfonic acid] as the compound, how does the “alcohol withdrawal associated anxiety effects” value [1] read?
Its value is “reduce alcohol withdrawal associated anxiety effects”.

And the “youths judged treatment responders” value [2]?
The value was “five of six”.

And the “fractional change in sAPP(total)-CP from Baseline to Week 12” value (sAPP; individual patients 1-6)?
Its value is −0.8279 and −0.3066 and −0.0102 and −0.1029 and −0.437 and −0.544.

And the “sAPP(total)-CP level, Week 12” value (sAPP; individual patients 1-6, after treatment)?
Its value is 5.561 ng/mL and 25.16 ng/mL and 12.84 ng/mL and 8.077 ng/mL and 56.8 ng/mL and 7.547 ng/mL.

And the “mean sAPP total post-treatment” value (sAPP; pooled 15 participants (9 FXS, 6 idiopathic ASD), 1,054 mg/day, pre-treatment 32.6±38.3, p=0.01)?
Its value is 21.4 ± 32.3 ng/mL.

What about the “mean sAPP total at endpoint” value (sAPP; six subjects, idiopathic ASD trial, baseline 34.7, p=0.02) of the same compound?
Its value is 19.3 ng/mL.

What about the tolerability [3] of the same compound?
The tolerability was “well tolerated with no adverse effects leading to drug discontinuation or laboratory/vital sign abnormalities noted; also recorded: well tolerated with no adverse effects leading to drug discontinuation and no vital sign or safety laboratory changes noted”.

And the “extracellular dopamine levels in the nucleus accumbens” value (extracellular dopamine)?
The value was “elevates extracellular dopamine levels in the nucleus accumbens”.

And the “training P.I. average (mean)” value ([4]; KO Acam group, KO Sal 0.022521, WT Sal 0.193298)?
The value was 0.06358.

And the “test P.I. average (mean)” value ([4]; KO Acam group, KO Sal 0.134837, WT Sal 0.167142)?
The value was 0.2684.

What about the “test P.I.” value ([4]; KO Acam, individual mice) of the same compound?
Its value is 0.3192 and 0.2294 and 0.5255 and 0.2717 and 0.3025 and −0.1161 and 0.3463.

And the test fam ([4]; KO Acam, individual mice)?
The test fam was 24.3 and 40.3 and 28.38 and 28.7 and 32.28 and 47.59 and 30.2.

And the test novel ([4]; KO Acam, individual mice)?
The test novel was 47.09 and 64.3 and 91.23 and 50.11 and 60.28 and 37.69 and 62.2.

And the test total ([4]; KO Acam, individual mice)?
The test total was 71.39 and 104.6 and 119.61 and 78.81 and 92.56 and 85.28 and 92.4.

What about the “training P.I.” value ([4]; KO Acam, individual mice) of the same compound?
The value was 0.1811 and 0.1143 and 0.08976 and −0.105 and 0.1648 and −0.1088 and 0.1088.

And the “training Total” value ([4]; KO Acam, individual mice)?
Its value is 89.27 and 135.74 and 82.44 and 97.27 and 78.95 and 159.13 (2×).

And the training left ([4]; KO Acam, individual mice)?
The training left was 52.72 and 75.63 and 44.92 and 43.53 and 45.98 and 70.91 and 88.22.

And the training right ([4]; KO Acam, individual mice)?
The training right was 36.55 and 60.11 and 37.52 and 53.74 and 32.97 and 88.22 and 70.91.
